In patent US20130079383A1, “Lipid Compounds Targeting VLA-4” (ARROWHEAD RESEARCH CORPORATION, priority 2011, published 2013):
Counter-ions that a name gives are not always drawn.

Tests used:
[1] = target: T1, VLA-4 (Homo sapiens, UniProt P05556+P13612); test: VLA-4/VCAM binding (adhesion) assay in Jurkat cells; type: cell-based; settings: Jurkat cells activated with 0.5 mM Mn2+, VCAM-1-coated plates, 45 min at 37° C.
T1 construct: Jurkat cells express high levels of VLA-4 on their membrane surface; host or cells: Jurkat Clone E6-1
T1 sequence (P13612 34-1032): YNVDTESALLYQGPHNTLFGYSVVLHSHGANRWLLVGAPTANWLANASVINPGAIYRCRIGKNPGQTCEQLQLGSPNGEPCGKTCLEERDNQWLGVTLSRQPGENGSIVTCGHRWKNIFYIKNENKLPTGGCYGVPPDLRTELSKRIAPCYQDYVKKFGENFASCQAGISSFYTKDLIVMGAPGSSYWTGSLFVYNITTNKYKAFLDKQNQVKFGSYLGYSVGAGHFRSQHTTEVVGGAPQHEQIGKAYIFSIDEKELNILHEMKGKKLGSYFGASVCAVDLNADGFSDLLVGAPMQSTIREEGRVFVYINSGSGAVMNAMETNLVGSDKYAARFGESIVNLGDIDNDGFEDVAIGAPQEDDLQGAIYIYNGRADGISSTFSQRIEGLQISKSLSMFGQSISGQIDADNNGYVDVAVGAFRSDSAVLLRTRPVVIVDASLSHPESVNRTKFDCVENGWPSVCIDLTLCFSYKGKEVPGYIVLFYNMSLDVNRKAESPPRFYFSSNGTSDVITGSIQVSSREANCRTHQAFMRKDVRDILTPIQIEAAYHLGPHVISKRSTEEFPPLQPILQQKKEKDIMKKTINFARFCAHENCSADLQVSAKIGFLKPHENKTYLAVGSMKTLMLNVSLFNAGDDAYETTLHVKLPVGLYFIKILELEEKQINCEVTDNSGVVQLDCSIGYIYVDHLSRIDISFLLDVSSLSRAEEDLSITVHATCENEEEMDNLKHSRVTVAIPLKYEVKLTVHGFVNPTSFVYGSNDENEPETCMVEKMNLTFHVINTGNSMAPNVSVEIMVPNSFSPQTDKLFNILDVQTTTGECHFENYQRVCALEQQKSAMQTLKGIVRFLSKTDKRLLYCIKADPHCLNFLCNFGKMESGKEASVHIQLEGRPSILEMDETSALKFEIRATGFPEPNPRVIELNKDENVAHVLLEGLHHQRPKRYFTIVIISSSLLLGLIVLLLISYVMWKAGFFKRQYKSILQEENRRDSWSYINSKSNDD
T1 sequence (P05556 21-798): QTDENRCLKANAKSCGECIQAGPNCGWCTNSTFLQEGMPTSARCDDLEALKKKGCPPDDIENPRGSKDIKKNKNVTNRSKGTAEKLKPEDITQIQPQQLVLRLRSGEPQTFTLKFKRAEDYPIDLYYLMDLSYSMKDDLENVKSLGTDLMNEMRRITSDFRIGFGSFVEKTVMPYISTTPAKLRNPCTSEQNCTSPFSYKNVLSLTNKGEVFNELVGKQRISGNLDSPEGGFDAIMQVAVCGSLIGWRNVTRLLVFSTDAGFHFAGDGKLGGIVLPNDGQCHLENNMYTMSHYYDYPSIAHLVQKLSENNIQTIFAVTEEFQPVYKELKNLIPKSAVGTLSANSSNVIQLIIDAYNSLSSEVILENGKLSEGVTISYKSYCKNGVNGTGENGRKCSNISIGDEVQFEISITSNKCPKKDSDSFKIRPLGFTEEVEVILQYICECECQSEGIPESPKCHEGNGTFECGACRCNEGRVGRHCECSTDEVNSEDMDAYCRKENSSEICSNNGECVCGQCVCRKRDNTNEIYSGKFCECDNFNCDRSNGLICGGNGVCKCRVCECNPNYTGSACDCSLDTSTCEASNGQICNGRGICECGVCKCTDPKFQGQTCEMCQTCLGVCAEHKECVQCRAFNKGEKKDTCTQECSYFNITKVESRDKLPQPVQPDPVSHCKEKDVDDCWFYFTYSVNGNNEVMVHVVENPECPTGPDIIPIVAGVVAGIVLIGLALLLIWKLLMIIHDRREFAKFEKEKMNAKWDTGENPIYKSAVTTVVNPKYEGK
Procedure: The following adhesion assay has been reported previously and used in this invention with minor modification. See U.S. Pat. Nos. 6,229,011 and 6,380,387 both of which are incorparated herein by reference in their entirety. […] Each assay was conducted in a 96-well plate with VCAM-1 used as the counter ligand for the cells (i.e., VCAM-1 was bound to the surface of the wells). More specifically, 96-well high-binding F96 Maxisorp immuno microtiter plates (Nunc) were coated overnight with 25 ng/well of VCAM-1. On the day of the experiment, plates were blocked for 1 h with PBS buffer containing 1% nonfat dry milk to eliminate nonspecific binding. The plates were then washed with DPBS (Dulbecco's Phosphate Buffered Saline) and blotted dry. Any excess liquid was carefully aspirated from the wells. As a control, the small molecule antagonist (27) for inhibiting VLA-4 referred to above was added to control wells in buffer containing 4% DMSO and diluted down the plate, typically in a concentration range of 1000 nM to 0.2 nM. Jurkat Clone E6-1 cells (ATCC) were labeled with 100 μg/mL 6-carboxyfluorescein diacetate, a fluorescent dye, and then activated with RPMI 1640 medium containing 0.5 mM of the divalent cation Mn^2+ and 0.05% bovine serum albumin. It is noted that this activation is needed to achieve maximal binding for the ligand and may simulate the activation of integrins by cytokines and chemokines in vivo. […] To assess VLA-4 inhibition of the VLA-4 targeting lipids (from the examples), Jurkat cells (expressing high levels of VLA-4) were added to the VCAM-1-coated plates to a final concentration of 2×10^5 cells/well in 96-well plates and allowed to incubate with the test lipids (from the examples) for 45 min at 37° C. After removing unbound cells by gently washing the wells with PBS, the fluorescence signal from the bound cells was read on a Tecan Safire2 microplate reader at 450 nm. Points were plotted and the IC50s of each lipid were determined by regression analysis using the linear portion of the concentration-response curve.

[2] = system: KIF11 mRNA; test: KIF11 mRNA knockdown in MV4-11 cells by LNP-formulated KIF11 siRNA (relative to 18S ribosomal RNA); type: cell-based, human; settings: added with no formulation as a control
Procedure: FIG. 1. Bar graph illustrating KIF11 mRNA knockdown in MV4-11 cells (relative to 18S ribosomal RNA as a control) with various LNP formulations containing KIF11 siRNA (formulation nos. 54F, 54I, 54L, and 54O).
The human cancer cell line MV4-11 was maintained in media supplemented with 10% heat-inactivated Fetal Bovine Serum (HI-FBS; Gibco/BRL, Gaithersburg, Md.) and 2 mM L-glutamine (Gibco/BRL).
MV4-11 suspension cells in 1 ml of culturing medium were seeded in 24-well plates 24 h before transfection and RNA quantification targeting siRNA were formulated in LNPs and directly added to the medium for transfection. Cells were then collected for RNA quantification.
Sample collection and mRNA purification for in vitro studies were performed as follows. MV4-11 cells were lysed directly on the plate with RNA lysis buffer (Qiagen). Suspension cells were collected into tubes and spun down at 2,000 rpm for 1 min, then the cell pellets were lysed with RNA lysis buffer (Qiagen). […]
Total RNA from all collected samples was purified using Qiagen RNeasy Kit following the manufacturer's protocol. Relative quantification of target mRNA and 18S ribosomal RNA gene expression was carried out with cDNA Reverse Transcription Reagents from Applied Biosystems followed by Taqman Gene Expression Assays (Applied Biosystems) using the manufacturer's protocol. […]

SMILES: CCCCCCCCCCCCOCC(C[N+](C)(C)CCCNC(=O)CCOCCOCCOCCOCCOCCOCCOCCOCCOCCC(=O)NCCC1(C(=O)N[C@@H](Cc2ccc(NC(=O)c3c(Cl)cccc3Cl)cc2)C(=O)O)CCCC1)OCCCCCCCCCCCC (stereo partly drawn) [Example 1, [2,3-bis(dodecyloxy)propyl][3-[[3-[2-[2-[2-[2-[2-[2-[2-[2-[[3-[[2-[1-[[[(S)-1-carboxy-2-[4-(2,6-dichloro-benzoylamino)phenyl]ethyl]amino]carbonyl]cyclopentyl]ethyl]amino]-3-oxopropyl]oxy]ethoxy]ethoxy]ethoxy]ethoxy]ethoxy]ethoxy]ethoxy]ethoxy]-1-oxopropyl]amino]propyl]dimethylaminium trifluoroacetate]
- IC50 [1]: 587 nM

SMILES: CCCCCCCCCCCCOCC(C[N+](C)(C)CCCNC(=O)CCC(=O)NCCOCCOCCOCCOCCOCCOCCOCCOCCOCCOCCOCCOCCC(=O)NCCC1(C(=O)N[C@@H](Cc2ccc(NC(=O)c3c(Cl)cccc3Cl)cc2)C(=O)O)CCCC1)OCCCCCCCCCCCC (stereo partly drawn) [Example 2, [2,3-bis(dodecyloxy)propyl][3-[[4-[[2-[2-[2-[2-[2-[2-[2-[2-[2-[2-[2-[2-[[3-[[2-[1-[[[(S)-1-carboxy-2-[4-(2,6-dichloro-benzoylamino)phenyl]ethyl]amino]carbonyl]cyclopentyl]ethyl]amino]-3-oxopropyl]oxy]ethoxy]ethoxy]ethoxy]ethoxy]ethoxy]ethoxy]ethoxy]ethoxy]ethoxy]ethoxy]ethoxy]ethyl]amino]-1-4-dioxobutyl]amino]propyl]dimethylaminium trifluoroacetate]
- IC50 [1]: 942 nM

SMILES: CCCCCCCCCCCCCCCCOCC(C[N+](C)(C)CCCNC(=O)CCOCCOCCOCCOCCOCCOCCOCCOCCOCCC(=O)NCCC1(C(=O)N[C@@H](Cc2ccc(NC(=O)c3c(Cl)cccc3Cl)cc2)C(=O)O)CCCC1)OCCCCCCCCCCCCCCCC (stereo partly drawn) [Example 3, [[2,3-bis(hexadecyloxy)propyl][3-[[3-[2-[2-[2-[2-[2-[2-[2-[2-[[3-[[2-[1-[[[(S)-1-carboxy-2-[4-(2,6-dichloro-benzoylamino)phenyl]ethyl]amino]carbonyl]cyclopentyl]ethyl]amino]-3-oxopropyl]oxy]ethoxy]ethoxy]ethoxy]ethoxy]ethoxy]ethoxy]ethoxy]ethoxy]-1-oxopropyl]amino]propyl]dimethylaminium trifluoroacetate]
- IC50 [1]: 1000 nM

SMILES: CCCCCCCCCCCCCCCCOCC(C[N+](C)(C)CCCNC(=O)CCC(=O)NCCOCCOCCOCCOCCOCCOCCOCCOCCOCCOCCOCCOCCC(=O)NCCC1(C(=O)NC(Cc2ccc(NC(=O)c3c(Cl)cccc3Cl)cc2)C(=O)O)CCCC1)OCCCCCCCCCCCCCCCC [Example 4, [2,3-bis(hexadecyloxy)propyl][3-[[4-[[2-2-[2-[2-[2-[2-[2-[2-[2-[2-[2-[2-[[3-[[2-[1-[[[(S)-1-carboxy-2-[4-(2,6-dichloro-benzoylamino)phenyl]ethyl]amino]carbonyl]cyclopentyl]ethyl]amino]-3-oxopropyl]oxy]ethoxy]ethoxy]ethoxy]ethoxy]ethoxy]ethoxy]ethoxy]ethoxy]ethoxy]ethoxy]ethoxy]ethyl]amino]-1,4-dioxobutyl]amino]propyl]dimethylaminium trifluoroacetate]
- IC50 [1]: 308 nM

SMILES: CCCCCCCCCCCCCCCCOCC(CN(C)CCCNC(=O)CCC(=O)NCCOCCOCCOCCOCCOCCOCCOCCOCCOCCOCCOCCOCCC(=O)NCCC1(C(=O)N[C@@H](Cc2ccc(NC(=O)c3c(Cl)cccc3Cl)cc2)C(=O)O)CCCC1)OCCCCCCCCCCCCCCCC (stereo partly drawn) [Example 5, (S)-Alpha-[[[1-[2-[[3-[2-[2-[2-[2-[2-[2-[2-[2-[2-[2-[2-[2-[[4-[[3-[[2,3-bis(hexadecyloxy)propyl]methylamino]propyl]amino]-1,4-dioxobutyl]amino]ethoxy]ethoxy]ethoxy]ethoxy]ethoxy]ethoxy]ethoxy]ethoxy]ethoxy]ethoxy]ethoxy]ethoxy]-1-oxoproyl]amino]ethyl]cyclopentyl]carbonyl]amino]-4-(2,6-dichlorobenzoylamino) benzenepropanoic acid]
- IC50 [1]: 6 nM

SMILES: CCCCCCCCCCCCCCCCCCOCC(C[N+](C)(C)CCCNC(=O)CCOCCOCCOCCOCCOCCOCCOCCOCCOCCC(=O)NCCC1(C(=O)N[C@@H](Cc2ccc(NC(=O)c3c(Cl)cccc3Cl)cc2)C(=O)O)CCCC1)OCCCCCCCCCCCCCCCCCC (stereo partly drawn) [Example 6, [2,3-bis(octadecyloxy)propyl][3-[[3-[2-[2-[2-[2-[2-[2-[2-[2-[[3-[[2-[1-[[[(S)-1-carboxy-2-[4-(2,6-dichloro-benzoylamino)phenyl]ethyl]amino]carbonyl]cyclopentyl]ethyl]amino]-3-oxopropyl]oxy]ethoxy]ethoxy]ethoxy]ethoxy]ethoxy]ethoxy]ethoxy]ethoxy]-1-oxopropyl]amino]propyl]dimethylaminium bromide]
- IC50 [1]: 133 nM

SMILES: CCCCCCCCCCCCCCCCCCCCOCC(C[N+](C)(C)CCCNC(=O)CCOCCOCCOCCOCCOCCOCCOCCOCCOCCC(=O)NCCC1(C(=O)N[C@@H](Cc2ccc(NC(=O)c3c(Cl)cccc3Cl)cc2)C(=O)O)CCCC1)OCCCCCCCCCCCCCCCCCCCC (stereo partly drawn) [Example 7, [2,3-bis(icosanyloxy)propyl][3-[[3-[2-[2-[2-[2-[2-[2-[2-[2-[[3-[[2-[1-[[[(S)-1-carboxy-2-[4-(2,6-dichloro-benzoylamino)phenyl]ethyl]amino]carbonyl]cyclopentyl]ethyl]amino]-3-oxopropyl]oxy]ethoxy]ethoxy]ethoxy]ethoxy]ethoxy]ethoxy]ethoxy]ethoxy]-1-oxopropyl]amino]propyl]dimethylaminium bromide]
- IC50 [1]: 89 nM

SMILES: CCCCCCCCCCCCCCCCCCCCOCC(CN(C)CCCNC(=O)CCOCCOCCOCCOCCOCCOCCOCCOCCOCCC(=O)NCCC1(C(=O)N[C@@H](Cc2ccc(NC(=O)c3c(Cl)cccc3Cl)cc2)C(=O)O)CCCC1)OCCCCCCCCCCCCCCCCCCCC (stereo partly drawn) [Example 8, (S)-Alpha-[[[1-[2-[[3-[2-[2-[2-[2-[2-[2-[2-[2-[[3-[[3-[[2,3-bis(icosanyloxy)propyl]methylamino]propyl]amino]-3-oxopropyl]oxy]ethoxy]ethoxy]ethoxy]ethoxy]ethoxy]ethoxy]ethoxy]ethoxy]-1-oxoproyl]amino]ethyl]cyclopentyl]carbonyl]amino]-4-(2,6-dichlorobenzoylamino)benzenepropanoic acid]
- IC50 [1]: 1000 nM

SMILES: Cc1cccc(Cl)c1C(=O)N[C@@H](Cc1ccc(NC(=O)c2c(Cl)cccc2Cl)cc1)C(=O)O [Example 27, (S)-2-(2-Chloro-6-methyl-benzoylamino)-3-[4-(2,6-dichloro-benzoylamino)-phenyl]-propionic acid]
- knockdown of KIF11 expression [2]: no knockdown
